Experimental data reported in patent US5736546A, “1,4-(diphenlyalkyl) piperazine derivatives” (Santen Pharmaceutical Co., Ltd., priority 1993, dated 1998).
Where a name gives a salt, the structure may show the parent alone.

Experiments:
[1] = molecular target: μ receptors (Rattus norvegicus, UniProt P33535)
[2] = tested on: amount of acetylcholine in rat brain; assay: Increasing effects on the amount of intracerebral acetylcholine (intracerebral microdialysis method); format: in vivo, male Wistar rat; settings: oral, 30 minutes after administration, averages of 3-7 samples
Protocol: (The New England Journal of Medicine, 315, 1241-1245 (1986)), the amount of acetylcholine in rat brain was then measured according to the report of Matsuno et al. (Brain Research, 575, 315-319 (1992)). […] 2. […] (The New England Journal of Medicine, 315, 1241-1245 (1986)), an experiment was performed to examine effects of the compounds of this invention on the amount of acetylcholine in rat brain. (Experimental Method) The amount of acetylcholine in rat brain was measured by the following method using intracerebral microdialysis method according to the report of Matsuno et al. (Brain Research, 575, 315-319 (1992)). […] The amount of acetylcholine in rat brain was measured with time. When it became constant, the test compound suspended in 1% methylcellulose solution was administered orally to the rat, and the amount of intracerebral acetylcholine was measured. The amount of acetylcholine in rat brain (average of six samples) to which the test compound was not administered was used as a control.

[3] = molecular target: T1, sigma receptors (Cavia porcellus, UniProt Q60492); assay: biochemical; design: species or system Hartley guinea pig; settings: read-out: IC50 (inhibition of specific binding of [3H](+)-SKF-10047)
T1 construct: A brain of a Hartley guinea pig (weight: 300-400 g) was excised; from tissue; host or cells: Hartley guinea pig brain, membrane preparation
T1 sequence (Q60492 whole entry): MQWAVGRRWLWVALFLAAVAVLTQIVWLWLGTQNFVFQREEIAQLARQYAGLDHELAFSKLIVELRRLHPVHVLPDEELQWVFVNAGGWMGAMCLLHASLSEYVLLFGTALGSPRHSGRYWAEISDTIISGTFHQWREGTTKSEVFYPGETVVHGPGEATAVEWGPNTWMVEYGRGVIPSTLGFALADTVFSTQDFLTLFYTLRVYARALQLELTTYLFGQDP

[4] = molecular target: T1, sigma receptors; assay: Experiment using [3H](+)-PTZ as a labeled ligand (affinity for sigma receptors); design: species or system Hartley guinea pig; settings: [3H](+)-PTZ 5 nM; guinea pig brain membrane; 37° C., 150 minutes; averages of 4-11 samples; read-out: IC50 (inhibition of specific binding of [3H](+)-PTZ)

μ receptors, sequence (P33535 whole entry): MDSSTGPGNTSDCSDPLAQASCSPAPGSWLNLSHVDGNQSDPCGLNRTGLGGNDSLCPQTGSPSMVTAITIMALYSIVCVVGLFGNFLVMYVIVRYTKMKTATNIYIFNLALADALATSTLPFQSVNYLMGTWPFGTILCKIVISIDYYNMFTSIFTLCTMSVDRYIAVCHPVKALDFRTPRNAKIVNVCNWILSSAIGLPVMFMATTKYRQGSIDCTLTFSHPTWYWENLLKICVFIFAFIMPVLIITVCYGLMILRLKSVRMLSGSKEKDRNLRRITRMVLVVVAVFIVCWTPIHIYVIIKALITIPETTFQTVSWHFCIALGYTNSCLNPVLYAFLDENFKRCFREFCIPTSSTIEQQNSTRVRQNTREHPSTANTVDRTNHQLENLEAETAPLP

IC50 [1]	IC50 [3]	IC50 [4]	IC50 ([3]; [3H](+)-SKF-10047 5 nM, guinea pig brain membrane, 25° C., 30 minutes)	Structure (SMILES)	amount of acetylcholine (% control) ([2]; 10 mg/kg)	amount of acetylcholine (% control) ([2]; 20 mg/kg)	amount of acetylcholine (% control) ([2]; 40 mg/kg)	amount of acetylcholine (% control) ([2]; 80 mg/kg)
> 10 µM	9.32 nM	18 nM		COc1ccc(CCN2CCN(CCc3ccccc3)CC2)cc1OC [compound No. 1-2, 1-[2-(3,4-Dimethoxyphenyl)ethyl]-4-(2-phenylethyl)piperazine dihydrochloride]				
> 10 µM			4.28 nM	COc1ccc(CCN2CCN(Cc3ccccc3)CC2)cc1OC [compound No. 1-3, 1-[2-(3,4-Dimethoxyphenyl)ethyl]-4-benzylpiperazine dihydrochloride]				
		10.7 nM		COc1ccc(CCN2CCN(CCCCc3ccccc3)CC2)cc1OC.Cl.Cl [compound No. 1-4, 1-[2-(3,4-Dimethoxyphenyl)ethyl]-4-(4-phenylbutyl)piperazine dihydrochloride]			146.2 % control	164.9 % control
		14.9 nM		COc1ccc(CCCN2CCN(CCCc3ccccc3)CC2)cc1OC.Cl.Cl [compound No. 1-6, 1-[3-(3,4-Dimethoxyphenyl)propyl]-4-(3-phenylpropyl)piperazine dihydrochloride]		146.1 % control	176.9 % control	

Structure (SMILES)	IC50 [1]	IC50 [3]	IC50 [4]	IC50 ([3]; [3H](+)-SKF-10047 5 nM, guinea pig brain membrane, 25° C., 30 minutes)	amount of acetylcholine (% control) ([2]; 10 mg/kg)	amount of acetylcholine (% control) ([2]; 20 mg/kg)	amount of acetylcholine (% control) ([2]; 40 mg/kg)	amount of acetylcholine (% control) ([2]; 80 mg/kg)
COc1ccc(CCN2CCN(CCCc3ccccc3)CC2)cc1OC.Cl.Cl [compound No. 1-1, 1-[2-(3,4-Dimethoxyphenyl)ethyl]-4-(3-phenylpropyl)piperazine dihydrochloride]	> 10 µM				154.3 % control	170.0 % control		
